Data set [1] deals with p110δ or p110γ relative to p110α, p110β, DNAPK and/or mTor.
Experimental: IC50 values are measured using either a standard TLC assay for lipid kinase activity (described below) or a high-throughput membrane capture assay. Kinase reactions are performed by preparing a reaction mixture containing kinase, inhibitor (2% DMSO final concentration), buffer (25 mM HEPES, pH 7.4, 10 mM MgCl2), and freshly sonicated phosphatidylinositol (100 μg/ml). Reactions are initiated by the addition of ATP containing 10 μCi of γ-32P-ATP to a final concentration 10 or 100 μM and allowed to proceed for 5 minutes at room temperature. For TLC analysis, reactions are then terminated by the addition of 105 μl 1N HCl followed by 160 μl CHCl3:MeOH (1:1). The biphasic mixture is vortexed, briefly centrifuged, and the organic phase is transferred to a new tube using a gel loading pipette tip precoated with CHCl3. This extract is spotted on TLC plates and developed for 3-4 hours in a 65:35 solution of n-propanol:1 M acetic acid. The TLC plates are then dried, exposed to a phosphorimager screen (Storm, Amersham), and quantitated.
Briefly, the assay is a time resolved FRET assay that indirectly measures PIP3 product formed by the activity of a PI3-K. The kinase reaction is performed in a microtitre plate (e.g., a 384 well microtitre plate). The total reaction volume is approximately 20 ul per well. In the first step, each well receives 2 ul of test compound in 20% dimethylsulphoxide resulting in a 2% DMSO final concentration. Next, approximately 14.5 ul of a kinase/PIP2 mixture (diluted in 1× reaction buffer) is added per well for a final concentration of 0.25-0.3 ug/ml kinase and 10 uM PIP2. […] To start the reaction, 3.5 ul of ATP (diluted in 1× reaction buffer) is added per well for a final concentration of 10 uM ATP. The plate is sealed and incubated for 1 hour at room temperature. The reaction is stopped by adding 5 ul of Stop Solution per well and then 5 ul of Detection Mix is added per well. The plate is sealed, incubated for 1 hour at room temperature, and then read on an appropriate plate reader. Data is analyzed and IC50s are generated using GraphPad Prism 5.
DNA-PK can be purchased from Promega and assayed using the DNA-PK Assay System (Promega) according to the manufacturer's instructions.
The cross-activity or lack thereof of one or more compounds of the present invention against mTor can be measured according to any procedures known in the art or methods disclosed below. The compounds described herein can be tested against recombinant mTOR (Invitrogen) in an assay containing 50 mM HEPES, pH 7.5, 1 mM EGTA, 10 mM MgCl2, 2.5 mM, 0.01% Tween, 10 μM ATP (2.5 μCi of μ-32P-ATP), and 3 μg/mL BSA. Rat recombinant PHAS-¼EBP1 (Calbiochem; 2 mg/mL) is used as a substrate. Reactions are terminated by spotting onto nitrocellulose, which is washed with 1 M NaCl/1% phosphoric acid (approximately 6 times, 5-10 minutes each). Sheets are dried and the transferred radioactivity quantitated by phosphorimaging.
Other kits or systems for assaying mTOR activity are commercially available. For instance, one can use Invitrogen's LanthaScreen™ Kinase assay to test the inhibitors of mTOR disclosed herein. This assay is a time resolved FRET platform that measures the phosphorylation of GFP labeled 4EBP1 by mTOR kinase. The kinase reaction is performed in a white 384 well microtitre plate. The total reaction volume is 20 ul per well and the reaction buffer composition is 50 mM HEPES pH7.5, 0.01% Polysorbate 20, 1 mM EGTA, 10 mM MnCl2, and 2 mM DTT.
Data set [2] deals with collagen induced developing arthritis model. Nature of the data set: Rat developing type II collagen induced arthritis assay. It counts as in vivo. Conditions: for increase in ankle diameter over time: dose not stated. The protocol: In order to study the effects of the compounds of the present invention on the autoimmune disease arthritis, a collagen induced developing arthritis model was used. Female Lewis rats were given collagen injections at day 0. Bovine type II collagen was prepared as a 4 mg/ml solution in 0.01 N acetic acid. Equal volumes of collagen and Freund's incomplete adjuvant were emulsified by hand mixing until a bead of the emulsified material held its form in water. Each rodent received a 300 μl injection of the mixture at each injection time spread over three subcutaneous sites on the back.
Oral compound administration began on day 0 and continued through day 16 with vehicle (5% NMP, 85% PEG 400, 10% Solutol) or compounds of the present invention in vehicle or control (e.g. methotrexate) at 12 hour intervals daily. Rats were weighed on days 0, 3, 6, 9-17 and caliper measurements of ankles taken on days 9-17. Final body weights were taken, and then the animals were euthanized on day 17. After euthanization, blood was drawn and hind paws and knees were removed. Blood was further processed for pharmacokinetics experiments as well as an anti-type II collagen antibody ELISA assay. Hind paws were weighed and then with the knees preserved in 10% formalin. The paws and knees were subsequently processed for microcopy. Livers, spleen and thymus were also weighed. Sciatic nerves were prepared for histopathology.
Knee and ankle joints were fixed for 1-2 days and decalcified for 4-5 days. Ankle joints were cut in half longitudinally, knees were cut in half along the frontal plane. Joints were then processed, embedded, sectioned and stained with toluidine blue. Scoring of the joints was done according to the following criteria:
Percent inhibition of paw weight and AUC was calculated using the following formula:
% Inhibition=A−B/A×100 • A=Mean Disease Control—Mean Normal • B=Mean Treated—Mean Normal

In data set [3] the test system is adjuvant induced arthritis model. The data set can be described thus: Adjuvant induced arthritis assay. It counts as in vivo. As to the method:
Isoflurane-anesthetized Lewis rats (200-250 g) were implanted with an intrathecal (IT) catheter. After a 6 d recovery period, all animals except those that appeared to have sensory or motor abnormalities (fewer than 5% of the total number) were used for experiments. For IT administration, 10 μl of drug or saline followed by 10 μl of isotonic saline was injected through the catheter.
Lewis rats were immunized at the base of the tail with 0.1 ml of complete Freund's adjuvant (CFA) on day 0 several days after catheter implantation (n=6/group). Drug (e.g. one or more compounds of the present invention or vehicle) treatment was generally started on day 8 and continued daily until day 20. Clinical signs of arthritis generally begin on day 10, and paw swelling was determined every second day by water displacement plethysmometry.

Data set [4] has as its system LPS-induced lung inflammation model. Nature of the data set: LPS-induced lung inflammation assay. The note with it: oral; bronchoalveolar lavage 6 h after intranasal LPS. It counts as in vivo, rats. The protocol:
To perform the LPS-induced lung inflammation assay, compounds were dosed orally. A group was dosed with vehicle only and dexamethasone (5 mg/kg) was used in another group as positive control. Pulmonary inflammation was determined 6 h after intranasal instillation of LPS (10 μg). The following parameters were evaluated: total number of leukocytes and number of neutrophils in bronchoalveolar lavage (BAL).

In data set [5] the test system is OVA-induced allergic lung inflammation model. The data set can be described thus: Ovalbumin-induced lung inflammation assay. It counts as in vivo, rats. Conditions: oral; bronchoalveolar lavage after 4 daily ovalbumin challenges. The protocol: In the ovalbumin-induced lung inflammation assay, compounds were dosed orally. A group was dosed with vehicle only and dexamethasone (5 mg/kg) was used in another group as positive control. Pulmonary inflammation was determined 4 days after 4 consecutive daily intranasal instillation of ovalbumin. Compounds were given by gavage 30 min before each challenge (4 challenges) at the indicated doses. The following parameters were evaluated: Total number of leukocytes and number of eosinophils in bronchoalveolar lavage (BAL).

In data set [6] the test system is established type II collagen induced arthritis. The data set can be described thus: Rat established type II collagen induced arthritis assay. It counts as in vivo. Conditions: oral. As to the method:
In order to examine the dose responsive efficacy of the compounds of the present invention in inhibiting the inflammation, cartilage destruction and bone resorption of 10 day established type II collagen induced arthritis in rats, compounds were administered orally daily or twice daily for 6 days.
Female Lewis rats were anesthetized and given collagen injections prepared and administered as described previously on day 0. On day 6, animals were anesthetized and given a second collagen injection. Caliper measurements of normal (pre-disease) right and left ankle joints were performed on day 9. On days 10-11, arthritis typically occurred and rats were randomized into treatment groups. Randomization was performed after ankle joint swelling was obviously established and there was good evidence of bilateral disease.
After an animal was selected for enrollment in the study, treatment was initiated by the oral route. Animals were given vehicle, control (Enbrel) or compound doses, twice daily or once daily (BID or QD respectively). Dosing was administered on days 1-6 using a volume of 2.5 ml/kg (BID) or 5 ml/kg (QD) for oral solutions. Rats were weighed on days 1-7 following establishment of arthritis and caliper measurements f ankles taken every day. Final body weights were taken on day 7 and animals were euthanized.

Data set [7] concerns basophilic granulocytes. Nature of the data set: Basotest assay. The format is cell-based. The note with it: heparinized whole blood; dust mite or grass extract. The protocol:
The baseotest assay is performed using Orpegen Pharma Basotest reagent kit. Heparinized whole blood is pre-incubated with test compound or solvent at 37° C. for 20 min. Blood is then incubated with assay kit stimulation buffer (to prime cells for response) followed by allergen (dust mite extract or grass extract) for 20 min. The degranulation process is stopped by incubating the blood samples on ice. The cells are then labeled with anti-IgE-PE to detect basophilic granulocytes, and anti-gp53-FITC to detect gp53 (a glycoprotein expressed on activated basophils). After staining red blood cells are lysed by addition of Lysing Solution. Cells are washed, and analyzed by flow cytometry.

Entries after “also recorded” stand apart in the source; their conditions may differ.

`C[C@H](Nc1nc(N)ncc1C(F)(F)F)c1cc2cccc(Cl)c2c(=O)n1-c1ccccc1` [Compound 346]: the selectivity ratio in data set [1] is ≥ 3.

For `C[C@H](Nc1ncnc2[nH]cnc12)c1cc2ncccc2c(=O)n1-c1ccccc1` [Compound 357], the selectivity ratio in data set [1] was ≥ 3. For the compound `C[C@H](Nc1ncnc2[nH]cnc12)c1cc2cccc(Cl)c2c(=O)n1-c1ccccc1` [compound 292, (S)-3-(1-(9H-purin-6-ylamino)ethyl)-8-chloro-2-phenylisoquinoline-1(2H)-one], the “increase in ankle diameter over time” value in data set [2] and in data set [3] (dose not stated) was “reducing the increase in ankle diameter over time” throughout. In data set [4], the “LPS-induced total leukocyte neutrophil influx” value is reported as “inhibiting LPS-induced total leukocyte neutrophil influx”. Moreover, the eosinophil influx entry in data set [5] is “inhibiting eosinophil influx”. Regarding `C[C@H](Nc1ncnc2[nH]cnc12)c1cc2cccc(Cl)c2c(=O)n1C1CC1` [compound 270, (S)-3-(1-(9H-purin-6-ylamino)ethyl)-2-cyclopropyl-8-chloro-isoquinolin-1(2H)-one], in data set [2], the “increase in ankle diameter over time” value is on record as “reducing the increase in ankle diameter over time”. Turning to `Nc1ncnc2c1c(-c1cn[nH]c1)nn2Cc1cc2cccc(Cl)c2c(=O)n1-c1ccccc1` [Compound 338], the selectivity ratio in data set [1] was ≥ 3. For `C[C@H](Nc1ncnc2[nH]cnc12)c1cc2cccc(F)c2c(=O)n1-c1cccc(F)c1` [Compound 331], in data set [1], the selectivity ratio is ≥ 3. Same read-out and setting: in the case of `[2H]c1nc2c(N[C@@H](C)c3cc4cccc(C)c4c(=O)n3-c3ccccc3)ncnc2[nH]1` [Compound 349] it was ≥ 3; in that of `C[C@H](Nc1ncnc2[nH]c(Cl)nc12)c1cc2cccc(Cl)c2c(=O)n1-c1ccccc1` [Compound 333], ≥ 3; in that of `C[C@H](Nc1ncnc2c1ncn2C)c1cc2cccc(Cl)c2c(=O)n1-c1ccccc1` [Compound 340], ≥ 3. As to `C[C@H](Nc1ncnc2[nH]cnc12)c1cc2cccc(F)c2c(=O)n1-c1ccccc1` [Compound 330], the selectivity ratio in data set [1] is ≥ 3.

As for `CC(=O)Nc1nc2ccc(-c3nn(Cc4cc5cccc(C)c5c(=O)n4-c4ccccc4C)c4ncnc(N)c34)cc2s1` [Compound 53], the “ankle histopathology, all categories” value in data set [2] (60 mg/kg) was “statistically significant reduction in all categories of ankle histopathology”. In addition, in data set [2] (10, 20, and 60 mg/kg dosage levels), the “serum anti-type II collagen levels” value is reported as “reducing the level of anti-type II collagen antibodies; also recorded: significant reduction”. Besides, the “mean ankle diameter increase over time” value is on record as “significant reduction in arthritis induced ankle diameter increase over time” in data set [2] (10, 30, and 60 mg/kg at 12 hour intervals, oral, relative to vehicle or methotrexate control); “significant reduction in mean ankle diameter increase over time” in data set [6] (once daily dosage); “significant reduction in mean ankle diameter increase over time” in data set [6] (twice daily dosage). The “ankle histopathology (inflammation, pannus, cartilage damage, bone resorption)” value in data set [2] (developing arthritis, oral) is “improving ankle histopathology; also recorded: significant reduction in one or more categories”. For the same compound, in data set [2] (developing arthritis, oral), the knee histopathology result is listed as “dose dependent reduction in knee histopathology”. In addition, in data set [3] (rat, in vivo), the “average paw volume increase” value is listed as “dose dependent reduction in the average paw volume increase”. In data set [3] (rat, in vivo), the “toxicity or other adverse reaction as measured by weight loss” value is on record as “does not exhibit toxicity or other adverse reaction”. The “inhibition of allergen induced activation of basophilic granulocytes, active range” value in data set [7] is listed as “sub micromolar range”. For the compound `Cc1cccc2cc([C@H](C)Nc3ncnc4[nH]cnc34)n(-c3ccccc3)c(=O)c12` [compound 196], in data set [2], the “increase in ankle diameter over time” value is “reducing the increase in ankle diameter over time”. Consider `C[C@H](Nc1ncnc2[nH]cnc12)c1cc2cccc(Cl)c2c(=O)n1-c1ccc(F)cc1` [Compound 329], for which, in data set [1], the selectivity ratio was ≥ 3.

For the compound `Cc1csc2ncnc(N[C@@H](C)c3cc4cccc(Cl)c4c(=O)n3-c3ccccc3)c12` [Compound 352], in data set [1], the selectivity ratio was ≥ 3.

Take `Nc1ncnc2c1c(-c1cn[nH]c1)nn2Cc1cc2cccc(Cl)c2c(=O)n1-c1cccc(F)c1` [Compound 339]: the selectivity ratio in data set [1] is ≥ 3. For the compound `CNc1ncc(C(F)(F)F)c(N[C@@H](C)c2cc3cccc(Cl)c3c(=O)n2-c2ccccc2)n1` [Compound 354], the selectivity ratio in data set [1] was ≥ 3. As for `C[C@H](Nc1ncnc2sccc12)c1cc2cccc(Cl)c2c(=O)n1-c1ccccc1` [Compound 343], in data set [1], the selectivity ratio was ≥ 3. As to `Cc1ccccc1-n1c(Cn2nc(-c3cn[nH]c3)c3c(N)ncnc32)cc2cccc(Cl)c2c1=O` [Compound 336], in data set [1], the selectivity ratio is ≥ 3.

On to `Nc1ncnc2c1c(-c1cn[nH]c1)nn2Cc1cc2cccc(Cl)c2c(=O)n1-c1ccccc1F` [Compound 337], for which, in data set [1], the selectivity ratio is ≥ 3. Regarding `Cc1cccc2cc([C@H](C)Nc3ncnc4[nH]cnc34)n(C3CC3)c(=O)c12` [compound 200, (S)-3-(1-(9H-purin-6-ylamino)ethyl)-2-cyclopropyl-8-methylisoquinolin-1(2H)-one], in data set [2], the “increase in ankle diameter over time” value is “reducing the increase in ankle diameter over time”. Consider `C[C@H](Nc1ncnc2ccsc12)c1cc2cccc(Cl)c2c(=O)n1-c1ccccc1` [Compound 344], for which the selectivity ratio in data set [1] is ≥ 3. The same measure, in the same setting: then `C[C@H](Nc1ncnc2[nH]cnc12)c1cc2cccc(F)c2c(=O)n1-c1ccc(F)cc1` [Compound 332], with ≥ 3; and `C[C@H](Nc1ncnc2[nH]cnc12)c1cc2cccc(Cl)c2c(=O)n1-c1cccc(F)c1` [Compound 328], with ≥ 3; and `[2H]c1nc2c(N[C@@H](C)c3cc4cccc(Cl)c4c(=O)n3C3CC3)ncnc2[nH]1` [Compound 350], with ≥ 3.

The record behind these values is patent US20250170122A1, “CERTAIN CHEMICAL ENTITIES, COMPOSITIONS AND METHODS” (Intellikine LLC, priority 2009, published 2025).
